Measurements taken from publication PMC4027965 (Molecular imaging, 2013).

Assay: in vivo
Conditions: female, athymic nude, mouse, liver, iv, 3.7 MBq (100 uCi), total radioactivity

Q: Which tissue uptake at 2 h does the source give for `N=C(N)NCCC[C@@H]1NC(=O)[C@H](CSC2CC(=O)N(CCNC(=O)CCCC(=O)Nc3ccc(C4=NNC(c5ccccn5)=C5CCC(OCCF)CCCC45)nc3)C2=O)NC(=O)[C@@H](Cc2ccc(O)cc2)NC(=O)[C@H](CC(=O)O)NC(=O)CNC1=O` (stereo partly shown) [^18F-TTM-RGD] here?
A: 2.35 ± 0.24 %ID/g
